Assay results reported in patent US7326768B2, “Goodpasture antigen-binding protein isoforms and protein misfolded-mediated disorders” (priority 2003, dated 2008).
“Also recorded” adds a separate entry of the source. Ends that are not written are not given here.

Legend:
CaM kinase II [1] = conditions: known; cited from earlier work
recombinant human GPBP [2] = target: T1, recombinant human GPBP (Homo sapiens, UniProt Q9Y5P4); experiment: In vitro phosphorylation: GPBP kinase activity / autophosphorylation; conditions: for GPBP kinase activity in vitro (autophosphorylation): modulators at 200 μM, 10 min autophosphorylation reaction
T1 sequence (Q9Y5P4 1-624): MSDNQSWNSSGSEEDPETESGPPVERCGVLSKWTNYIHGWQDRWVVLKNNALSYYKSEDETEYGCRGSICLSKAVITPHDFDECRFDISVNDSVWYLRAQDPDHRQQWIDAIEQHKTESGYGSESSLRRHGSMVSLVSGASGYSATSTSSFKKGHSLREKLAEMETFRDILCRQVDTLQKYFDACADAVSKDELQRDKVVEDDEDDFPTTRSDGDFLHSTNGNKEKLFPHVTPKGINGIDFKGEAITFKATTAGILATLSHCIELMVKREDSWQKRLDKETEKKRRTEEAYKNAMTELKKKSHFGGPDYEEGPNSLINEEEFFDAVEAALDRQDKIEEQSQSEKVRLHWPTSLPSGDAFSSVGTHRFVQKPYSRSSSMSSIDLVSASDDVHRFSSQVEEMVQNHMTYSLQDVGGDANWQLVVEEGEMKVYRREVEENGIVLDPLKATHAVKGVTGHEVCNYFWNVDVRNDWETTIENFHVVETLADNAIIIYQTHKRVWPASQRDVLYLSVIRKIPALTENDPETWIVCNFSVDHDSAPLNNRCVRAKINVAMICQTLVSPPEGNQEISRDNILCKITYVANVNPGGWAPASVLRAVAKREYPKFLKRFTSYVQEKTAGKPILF

[3] = test system: α3(IV)NC1-expressing cells (HEK293); experiment: α3(IV)NC1 conformer production in cultured cells (Western blot of culture media); assay type: cell-based, human; conditions: synthetic peptides 100-200 μM, organic compounds 5-50 μM, 24-48 h
recombinant human GPBP [4] = target: T1, recombinant human GPBP; experiment: Far Western blot with recombinant GPBP; assay type: binding; design: FLAG; made in house; host or cells: yeast; conditions: 1 μg peptide
NZW mice = experiment: Degenerative glomerulopathy in NZW mice (histochemical studies of kidney); assay type: in vivo
CaM kinase II [5] = experiment: CaM kinase II inhibition; assay type: biochemical
[6] = NZW treated with DAB-Am-4 and peptide

Row | GPBP kinase activity in vitro (autophosphorylation) (recombinant human GPBP [2]) | binding of GPBP to the peptide (recombinant human GPBP [4]) | inhibition of CaM kinase II (CaM kinase II [5]) | synergistic inhibitory effect on GPBP kinase activity (recombinant human GPBP [2]; combined with Ca^2+CaM) | synergistic inhibitory effect on GPBP kinase activity (recombinant human GPBP [2]; combined with KN62) | Compound | relative inhibitory potency for CaM kinase II (CaM kinase II [1]) | α3(IV)NC1 conformer production in cultured cells [3] | amyloid-like matter formation (thioflavin T or Congo red staining) (NZW mice; [6]) | fibrotic reaction in glomeruli (NZW mice; [6]) | fuchsinophilic material at the subendothelial space (NZW mice; [6]) | material deposited in the glomerulus of suspected collagenous nature (NZW mice; NZW treated with DAB-Am-4 and peptide 20 μg/g i.p.)
1 | efficiently impaired | – | – | – | – | COc1ccc(S(=O)(=O)N(CCO)c2ccccc2CN(C)CC=Cc2ccc(Cl)cc2)cc1 [KN93, 2-[N-(2-hydroxyethyl)-N-(4-methoxybenzenesulfonyl)]amino-N-(4-chlorocinnamyl)-N-methylbenzylamine] | more potent inhibitor than KN62 | reduced cell conformer production | – | – | – | –
2 | – | did not display binding capacity | – | – | – | Ac-KGKPGDTGPPAAGAVMRGFVFT-NH2 [GPpep1bov] | – | – | – | – | – | –
3 | efficiently inhibited | – | efficiently inhibited | no cooperative inhibitory effect | no cooperative inhibitory effect | LATLSHCIELMVKR (not fully specified (N-terminus, C-terminus)) [Q2] | – | reduction in conformer production; also recorded: efficiently inhibits; also recorded: more effective inhibiting cell conformer production than Q4 | efficiently inhibited amyloid-like matter formation | glomeruli virtually devoid of fibrotic reaction | unable to reduce | sharply reduced
